Test results: patent US8669255B2, “Substituted octahydropyrrolo[1,2-a]pyrazines as calcium channel blockers” (AbbVie Inc., priority 2011, dated 2014)

Test system: neuropathic pain (chronic constriction injury, CCI)
Test: In vivo assessment of analgesic effect against neuropathic pain (Bennett model, chronic constriction injury, tactile allodynia with von Frey filaments)
Details: Rattus norvegicus, po, 1 h, male Sprague Dawley rats, 10 mg/kg orally, mechanical allodynia 60 minutes following administration, percentage of maximum possible effect from log g PWT, read-out: % MPE
Method: (ii) Vivo Assessment of Analgesic Effect Against Neuropathic Pain (Bennett Model)
Animals were prepared for testing, by use of a surgical procedure that induces neuropathic pain in one paw. IACUC guidelines for rodent survival surgery were followed. All surgical procedures were conducted on a clean, uncluttered surgical station. The area was wiped with a 70% ethanol solution before and after use. All instruments were sterilized by either autoclave or chemical sterilant (such as 2% glutaraldehyde>10 hours). Surgeons wore sterile gloves (for the initial procedure), clean lab coat or scrubs, hairnet or cap, and a half-mask respirator (when not working under a hood). Surgeons thoroughly washed their hands prior to donning sterile gloves. Gloves were disinfected in-between animals by cleansing with povidone iodine, chlorhexidine or 70% alcohol for at least 30 seconds. If multiple surgeries were performed, the instruments were cleaned and sterilized between procedures with hot glass beads (>10 seconds). To prevent thermal or chemical burns, the instruments were cooled by rinsing in sterile saline before use.
Male, Sprague Dawley® rats, 175-200 g were used for surgeries. To minimize post-operative dehydration/maintain blood volume during the surgery, warmed sterile saline or Lactate Ringers solution at 10-15 mL/kg was administered subcutaneously immediately before or after surgery. This facilitates better renal function and presumably anesthesia product excretion post surgery. For all surgical procedures, anesthesia was induced with 4-5% isoflurane. Anesthesia was maintained during surgery with 1-3% isoflurane. Following induction, the surgical site was carefully shaved and the exposed area was aseptically prepared with povidone-iodine scrub solution and 70% ethanol 2-3 times.
Chronic constriction injury (CCI), a model of neuropathic pain, was produced by following the method of Bennett and Xie (Bennett, G., et al. Pain, 1988, 33, 87-107). After site sterilization and anesthetic procedures outline above were completed, a 1.5 cm incision is made at the mid-thigh level to expose the biceps femoris and gluteous superficialis (right side), which were then separated by blunt dissection. The common sciatic nerve was exposed, isolated, and loosely ligated by four 5-0 chromic gut ligatures with <1 mm spacing between each. The surgical site was closed in layers—muscle is closed with 6.0 absorbable sutures, and the skin closed with wound clips. Animals were allowed to recover on a warming plate and were returned to their home cages when fully ambulatory. Animals were not be used for testing until at least 10 days following surgery.
To measure mechanical sensitivity, tactile allodynia was measured using calibrated von Frey filaments (Stoelting, Wood Dale, Ill.) as described by Chaplan et al. (Chaplan S., et al. J of Neuroscience Methods 1994, 53, 55-63). Filament strengths used were: 0.4, 0.6, 1.0, 2, 4, 6, 8, and 15 g. Rats were placed into inverted individual plastic containers (20×12.5×20 cm) on top of a suspended wire mesh grid, and acclimated to the test chambers for at least 20 minutes. Filaments were applied perpendicular to the mid-plantar paw surface with enough force to cause slight buckling and held in place for 6-8 seconds. Positive responses included an abrupt withdrawal of the paw from the stimulus or flinching behavior immediately following removal of the stimulus. The maximum force applied was 15 g. The 50% paw withdrawal threshold (PWT) was calculated in grams (g) using the up-down method of Dixon (Dixon W. Ann Rev Pharmacol Toxicol 1980, 20, 441-462). […] All compounds were orally administered at 10 mg/kg in 10% dimethyl sulfoxide/polyethylene glycol at a volume of 2.0 mL/kg, and mechanical allodynia was determined 60 minutes following compound administration. […]

Compound | inhibition in vivo at 10 mg/kg
O=C(c1cccc(OC(F)(F)F)c1)N1CCN2C[C@H](Oc3cnc(C4CC4)cn3)C[C@H]2C1 [Example 81, [(7R,8aS)-7-[(5-cyclopropylpyrazin-2-yl)oxy]hexahydropyrrolo[1,2-a]-pyrazin-2(1H)-yl][3-(trifluoromethoxy)phenyl]methanone] | 39%
CN[C@H](C(=O)N1CCN2C[C@H](Oc3cnc(C4CC4)cn3)C[C@H]2C1)c1cccc(C(F)(F)F)c1 [Example 186, (2S)-1-[(7R,8aS)-7-[(5-cyclopropylpyrazin-2-yl)oxy]hexahydropyrrolo[1,2-a]pyrazin-2(1H)-yl]-2-(methylamino)-2-[3-(trifluoromethyl)phenyl]ethanone] | 91%
O=C(c1ccc(F)c(C(F)(F)F)c1)N1CCN2C[C@H](Oc3cnc(C4CC4)cn3)C[C@H]2C1 [Example 55, [(7R,8aS)-7-[(5-cyclopropylpyrazin-2-yl)oxy]hexahydropyrrolo[1,2-a]-pyrazin-2(1H)-yl][4-fluoro-3-(trifluoromethyl)phenyl]methanone] | 31%
O=C(/C=C/c1ccc(F)c(C(F)(F)F)c1)N1CCN2C[C@H](Oc3cnc(C4CC4)cn3)C[C@H]2C1 [Example 154, (2E)-1-[(7R,8aS)-7-[(5-cyclopropylpyrazin-2-yl)oxy]hexahydropyrrolo[1,2-a]pyrazin-2(1H)-yl]-3-[4-fluoro-3-(trifluoromethyl)phenyl]prop-2-en-1-one] | 0%
O=C(c1cccc(C(F)(F)F)c1F)N1CCN2C[C@H](Oc3cnc(C4CC4)cn3)C[C@H]2C1 [Example 80, [(7R,8aS)-7-[(5-cyclopropylpyrazin-2-yl)oxy]hexahydropyrrolo[1,2-a]-pyrazin-2(1H)-yl][2-fluoro-3-(trifluoromethyl)phenyl]methanone] | 31%
CN[C@@H](C(=O)N1CCN2C[C@H](Oc3cnc(C4CC4)cn3)C[C@H]2C1)c1cccc(C(F)(F)F)c1 [Example 187, (2R)-1-[(7R,8aS)-7-[(5-cyclopropylpyrazin-2-yl)oxy]hexahydropyrrolo[1,2-a]pyrazin-2(1H)-yl]-2-(methylamino)-2-[3-(trifluoromethyl)phenyl]ethanone] | 67%
O=C(c1cccc(C(F)(F)F)c1)N1CCN2C[C@H](Oc3cnc(C4CC4)cn3)C[C@H]2C1 [Example 68, [(7R,8aS)-7-[(5-cyclopropylpyrazin-2-yl)oxy]hexahydropyrrolo[1,2-a]-pyrazin-2(1H)-yl][3-(trifluoromethyl)phenyl]methanone] | 28%
O=C(c1cc(F)c(Cl)cc1F)N1CCN2C[C@H](Oc3cnc(C4CC4)cn3)C[C@H]2C1 [Example 73, (4-chloro-2,5-difluorophenyl)[(7R,8aS)-7-[(5-cyclopropylpyrazin-2-yl)-oxy]hexahydropyrrolo[1,2-a]pyrazin-2(1H)-yl]methanone] | 48%
O=C(c1cc(C(F)(F)F)ccc1Cl)N1CCN2C[C@H](Oc3cnc(C4CC4)cn3)C[C@H]2C1 [Example 72, [2-chloro-5-(trifluoromethyl)phenyl][(7R,8aS)-7-[(5-cyclopropylpyrazin-2-yl)oxy]hexahydropyrrolo[1,2-a]pyrazin-2(1H)-yl]methanone] | 20%
O=C(c1cccc(C(F)(F)F)c1)N1CC(=O)N2C[C@H](Oc3cnc(C4CC4)cn3)C[C@H]2C1 [Example 178, (7R,8aS)-7-[(5-cyclopropylpyrazin-2-yl)oxy]-2-[3-(trifluoromethyl)-benzoyl]hexahydropyrrolo[1,2-a]pyrazin-4(1H)-one] | 28%
